Patent US11180462B2, “Microbiocidal oxadiazole derivatives” (SYNGENTA PARTICIPATIONS AG, priority 2015, dated 2021)

Assays:
Phakopsora Pachyrhizi = test: Fungicidal activity against Phakopsora pachyrhizi / soybean / leaf disc preventative (Asian soybean rust); type: in vivo; details: foliar, 200 ppm in the applied formulation, soybean leaf disks, compared to untreated control leaf disks, read-out: disease control
In short: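 Scored 12 to 14 days post-application as percent control relative to untreated check discs, rust spores were sprayed under the disc one day after compound treatment. Incubation: 20°C, 75% rh, first 24–36 h in darkness, then 12 h daily light; discs kept on water agar.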

[1] = system: Puccinia recondita f. Sp. Tritici; test: Fungicidal activity against Puccinia recondita f. sp. tritici / wheat / leaf disc curative (brown rust); type: in vivo; details: foliar, 24 h, 200 ppm in the applied formulation, wheat leaf segments, curative (applied 1 day after inoculation), compared to untreated control leaf disks, read-out: disease control
In short: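 Curative test on wheat leaf segments (cv. Kanzler) on agar, inoculated with spore suspension and held dark at 19° C, 75% RH; formulated compound in water applied 1 day after inoculation. Incubated at 19° C, 75% RH, 12 h light/12 h dark; percent disease control versus untreated scored 6 to 8 days after application.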

[2] = system: Puccinia recondita f. Sp. Tritici; test: Fungicidal activity against Puccinia recondita f. sp. tritici / wheat / leaf disc preventative (brown rust); type: in vivo; details: foliar, 200 ppm in the applied formulation, wheat leaf segments, preventative, compared to untreated control leaf disks, read-out: disease control
In short: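 Percent disease control relative to untreated check segments is scored once disease develops, 7 to 9 days after application. Wheat cv. Kanzler segments receive compound spray (200 ppm in formulation) one day before spore inoculation, then sit at 19° C. and 75% rh under 12 h light/12 h dark.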

[3] = system: Glomerella lagenarium (Colletotrichum lagenarium); test: Fungicidal activity against Glomerella lagenarium (Colletotrichum lagenarium) liquid culture / cucumber / preventative (anthracnose); type: cell-based; details: Colletotrichum orbiculare; 20 ppm in the applied formulation; liquid culture (PDB), growth inhibition measured photometrically after 3 to 4 days; compared to untreated control; read-out: disease control
In short: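 Percent activity against the untreated check was derived from photometric growth measurements made 2 to 7 days after conidia in potato dextrose broth were combined with compound at 20 ppm. Cultures were kept dark at 24 °C and 96% humidity.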

COCCC(=O)N(CCOC)Cc1ccc(-c2noc(C(F)(F)F)n2)cc1 [Compound 1.335, 3-methoxy-N-(2-methoxyethyl)-N-[[4-[5-(trifluoromethyl)-1,2,4-oxadiazol-3-yl]phenyl]methyl]-propanamide]
≥ 80%: pest or weed control at 200 ppm (Phakopsora Pachyrhizi) | pest or weed control at 200 ppm [1] | pest or weed control at 200 ppm [2] | inhibition of growth at 20 ppm [3]

COCCN(Cc1ccc(-c2noc(C(F)(F)F)n2)cc1)C(=O)C1CCC1 [Compound 1.337, N-(2-methoxyethyl)-N-[[4-[5-(trifluoromethyl)-1,2,4-oxadiazol-3-yl]phenyl]methyl]-cyclobutane-carboxamide]
≥ 80%: pest or weed control at 200 ppm (Phakopsora Pachyrhizi) | pest or weed control at 200 ppm [1] | pest or weed control at 200 ppm [2] | inhibition of growth at 20 ppm [3]

CCOCC(=O)N(CCOC)Cc1ccc(-c2noc(C(F)(F)F)n2)cc1 [Compound 1.339, 2-ethoxy-N-(2-methoxyethyl)-N-[[4-[5-(trifluoromethyl)-1,2,4-oxadiazol-3-yl]phenyl]methyl]-acetamide]
≥ 80%: pest or weed control at 200 ppm (Phakopsora Pachyrhizi) | pest or weed control at 200 ppm [1] | pest or weed control at 200 ppm [2] | inhibition of growth at 20 ppm [3]

COCCN(Cc1ccc(-c2noc(C(F)(F)F)n2)cc1)C(=O)C1CC1C (stereo not drawn) [Compound 1.341, N-(2-methoxyethyl)-2-methyl-N-[[4-[5-(trifluoromethyl)-1,2,4-oxadiazol-3-yl]phenyl]methyl]-cyclopropane-carboxamide]
≥ 80%: pest or weed control at 200 ppm (Phakopsora Pachyrhizi) | pest or weed control at 200 ppm [1] | pest or weed control at 200 ppm [2] | inhibition of growth at 20 ppm [3]

COCCN(Cc1ccc(-c2noc(C(F)(F)F)n2)cc1)C(=O)C1(C)CC1 [Compound 1.344, N-(2-methoxyethyl)-1-methyl-N-[[4-[5-(trifluoromethyl)-1,2,4-oxadiazol-3-yl]phenyl]methyl]-cyclopropane-carboxamide]
≥ 80%: pest or weed control at 200 ppm (Phakopsora Pachyrhizi) | pest or weed control at 200 ppm [1] | pest or weed control at 200 ppm [2] | inhibition of growth at 20 ppm [3]

CCC(=O)N(CCOC)Cc1ccc(-c2noc(C(F)(F)F)n2)cc1 [Compound 1.345, N-(2-methoxyethyl)-N-[[4-[5-(trifluoromethyl)-1,2,4-oxadiazol-3-yl]phenyl]methyl]-propanamide]
≥ 80%: pest or weed control at 200 ppm (Phakopsora Pachyrhizi) | pest or weed control at 200 ppm [1] | pest or weed control at 200 ppm [2] | inhibition of growth at 20 ppm [3]

C=C(C)C(=O)N(CCOC)Cc1ccc(-c2noc(C(F)(F)F)n2)cc1 [Compound 1.346, N-(2-methoxyethyl)-2-methyl-N-[[4-[5-(trifluoromethyl)-1,2,4-oxadiazol-3-yl]phenyl]methyl]prop-2-enamide]
≥ 80%: pest or weed control at 200 ppm (Phakopsora Pachyrhizi) | pest or weed control at 200 ppm [1] | pest or weed control at 200 ppm [2] | inhibition of growth at 20 ppm [3]

CCC(C)C(=O)N(CCOC)Cc1ccc(-c2noc(C(F)(F)F)n2)cc1 (stereo not drawn) [Compound 1.350, N-(2-methoxyethyl)-2-methyl-N-[[4-[5-(trifluoromethyl)-1,2,4-oxadiazol-3-yl]phenyl]methyl]-butanamide]
≥ 80%: pest or weed control at 200 ppm (Phakopsora Pachyrhizi) | pest or weed control at 200 ppm [1] | pest or weed control at 200 ppm [2] | inhibition of growth at 20 ppm [3]

COCCN(Cc1ccc(-c2noc(C(F)(F)F)n2)cc1)C(=O)C1(C)COC1 [Compound 1.351, N-(2-methoxyethyl)-3-methyl-N-[[4-[5-(trifluoromethyl)-1,2,4-oxadiazol-3-yl]phenyl]methyl]-oxetane-3-carboxamide]
≥ 80%: pest or weed control at 200 ppm (Phakopsora Pachyrhizi) | pest or weed control at 200 ppm [1] | pest or weed control at 200 ppm [2] | inhibition of growth at 20 ppm [3]

COCCN(Cc1ccc(-c2noc(C(F)(F)F)n2)cc1)C(=O)C1CCCO1 (stereo not drawn) [Compound 1.355, N-(2-methoxyethyl)-N-[[4-[5-(trifluoromethyl)-1,2,4-oxadiazol-3-yl]phenyl]methyl]-tetrahydrofuran-2-carboxamide]
≥ 80%: pest or weed control at 200 ppm (Phakopsora Pachyrhizi) | pest or weed control at 200 ppm [1] | pest or weed control at 200 ppm [2] | inhibition of growth at 20 ppm [3]

COCCN(Cc1ccc(-c2noc(C(F)(F)F)n2)cc1)C(=O)C1(C#N)CC1 [Compound 1.356, 1-cyano-N-(2-methoxyethyl)-N-[[4-[5-(trifluoromethyl)-1,2,4-oxadiazol-3-yl]phenyl]methyl]-cyclopropane-carboxamide]
≥ 80%: pest or weed control at 200 ppm (Phakopsora Pachyrhizi) | pest or weed control at 200 ppm [1] | pest or weed control at 200 ppm [2] | inhibition of growth at 20 ppm [3]

COCCN(Cc1ccc(-c2noc(C(F)(F)F)n2)cc1)C(=O)C1CC1F (stereo not drawn) [Compound 1.358, 2-fluoro-N-(2-methoxyethyl)-N-[[4-[5-(trifIuoromethyl)-1,2,4-oxadiazol-3-yl]phenyl]methyl]-cyclopropane-carboxamide]
≥ 80%: pest or weed control at 200 ppm (Phakopsora Pachyrhizi) | pest or weed control at 200 ppm [1] | pest or weed control at 200 ppm [2] | inhibition of growth at 20 ppm [3]

COCCN(Cc1ccc(-c2noc(C(F)(F)F)n2)cc1)C(=O)C(C)OC (stereo not drawn) [Compound 1.359, 2-methoxy-N-(2-methoxyethyl)-N-[[4-[5-(trifluoromethyl)-1,2,4-oxadiazol-3-yl]phenyl]methyl]-propanamide]
≥ 80%: pest or weed control at 200 ppm (Phakopsora Pachyrhizi) | pest or weed control at 200 ppm [1] | pest or weed control at 200 ppm [2] | inhibition of growth at 20 ppm [3]

COCCN(Cc1ccc(-c2noc(C(F)(F)F)n2)cc1)C(=O)C1OCCO1 [Compound 1.360, N-(2-methoxyethyl)-N-[[4-[5-(trifluoromethyl)-1,2,4-oxadiazol-3-yl]phenyl]methyl]-1,3-dioxolane-2-carboxamide]
≥ 80%: pest or weed control at 200 ppm (Phakopsora Pachyrhizi) | pest or weed control at 200 ppm [1] | pest or weed control at 200 ppm [2] | inhibition of growth at 20 ppm [3]

COCCN(Cc1ccc(-c2noc(C(F)(F)F)n2)cc1)C(=O)CC(F)(F)F [Compound 1.361, 3,3,3-trifluoro-N-(2-methoxyethyl)-N-[[4-[5-(trifluoromethyl)-1,2,4-oxadiazol-3-yl]phenyl]methyl]-propanamide]
≥ 80%: pest or weed control at 200 ppm (Phakopsora Pachyrhizi) | pest or weed control at 200 ppm [1] | pest or weed control at 200 ppm [2] | inhibition of growth at 20 ppm [3]

COCCN(Cc1ccc(-c2noc(C(F)(F)F)n2)cc1)C(=O)C1CC1 [Compound 1.363, N-(2-methoxyethyl)-N-[[4-[5-(trifluoromethyl)-1,2,4-oxadiazol-3-yl]phenyl]methyl]-cyclopropane-carboxamide]
≥ 80%: pest or weed control at 200 ppm (Phakopsora Pachyrhizi) | pest or weed control at 200 ppm [1] | pest or weed control at 200 ppm [2] | inhibition of growth at 20 ppm [3]

COCCCC(=O)N(CCOC)Cc1ccc(-c2noc(C(F)(F)F)n2)cc1 [Compound 1.365, 4-methoxy-N-(2-methoxyethyl)-N-[[4-[5-(trifluoromethyl)-1,2,4-oxadiazol-3-yl]phenyl]methyl]-butanamide]
≥ 80%: pest or weed control at 200 ppm (Phakopsora Pachyrhizi) | pest or weed control at 200 ppm [1] | pest or weed control at 200 ppm [2] | inhibition of growth at 20 ppm [3]

CCC(C)N(Cc1ccc(-c2noc(C(F)(F)F)n2)cc1)C(=O)C1CCCCO1 (stereo not drawn) [Compound 1.368, N-sec-butyl-N-[[4-[5-(trifluoromethyl)-1,2,4-oxadiazol-3-yl]phenyl]methyl]-tetrahydropyran-2-carboxamide]
≥ 80%: pest or weed control at 200 ppm (Phakopsora Pachyrhizi) | pest or weed control at 200 ppm [1] | pest or weed control at 200 ppm [2] | inhibition of growth at 20 ppm [3]
